Laboratory results taken from patent US20010007679A1, “(S,R) FORMOTEROL METHODS AND COMPOSITIONS” (priority 1999, published 2001).

How the values were obtained:
[1] = target: human β1-adrenergic receptor (Homo sapiens, UniProt P08588); test: Second series: binding competition, human β1; details: for IC50: IC50 (nM) β1, Second series (human)
[2] = target: human β2-adrenergic receptor (Homo sapiens, UniProt P07550); test: Second series: binding competition, human β2; details: for IC50: IC50 (nM) β2, Second series (human); for β2 Selectivity (β1/β2): Second series (human)
Sequence of human β2-adrenergic receptor (P07550 whole entry): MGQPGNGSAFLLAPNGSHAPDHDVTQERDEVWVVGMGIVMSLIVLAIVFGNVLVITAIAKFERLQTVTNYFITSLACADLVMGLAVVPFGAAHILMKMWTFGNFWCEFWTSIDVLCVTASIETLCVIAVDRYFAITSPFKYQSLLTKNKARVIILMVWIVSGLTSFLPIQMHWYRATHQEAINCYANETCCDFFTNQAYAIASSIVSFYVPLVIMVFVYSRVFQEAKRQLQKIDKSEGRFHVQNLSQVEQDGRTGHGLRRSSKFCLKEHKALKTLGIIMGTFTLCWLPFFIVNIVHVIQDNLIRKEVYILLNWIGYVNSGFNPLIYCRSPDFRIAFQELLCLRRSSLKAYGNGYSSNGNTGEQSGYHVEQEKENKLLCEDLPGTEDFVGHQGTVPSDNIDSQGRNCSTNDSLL
Procedure: (R,S)- and (S,R)-desformoterol were screened, in duplicate at three concentrations (10^−9, 10^−7, 10^−5 M), for binding to human β1 and β2-adrenergic receptors. Compounds that inhibited specific binding ≧50% were then tested further at ten concentrations in duplicate in order to obtain full competition curves. Reference compounds were simultaneously tested at eight concentrations.

[3] = tested on: BEAS-2B cells; test: Intrinsic activity: cAMP production by radioimmunoassay; assay type: cell-based; details: 100-times the Kd concentration, relative to isoproterenol (set to 1.0)
Procedure: The assessment of intrinsic activity was evaluated in BEAS-2B cells grown to confluence. […] Samples were assayed for cAMP by radioimmunoassay.

Sequence of human β1-adrenergic receptor (P08588 whole entry): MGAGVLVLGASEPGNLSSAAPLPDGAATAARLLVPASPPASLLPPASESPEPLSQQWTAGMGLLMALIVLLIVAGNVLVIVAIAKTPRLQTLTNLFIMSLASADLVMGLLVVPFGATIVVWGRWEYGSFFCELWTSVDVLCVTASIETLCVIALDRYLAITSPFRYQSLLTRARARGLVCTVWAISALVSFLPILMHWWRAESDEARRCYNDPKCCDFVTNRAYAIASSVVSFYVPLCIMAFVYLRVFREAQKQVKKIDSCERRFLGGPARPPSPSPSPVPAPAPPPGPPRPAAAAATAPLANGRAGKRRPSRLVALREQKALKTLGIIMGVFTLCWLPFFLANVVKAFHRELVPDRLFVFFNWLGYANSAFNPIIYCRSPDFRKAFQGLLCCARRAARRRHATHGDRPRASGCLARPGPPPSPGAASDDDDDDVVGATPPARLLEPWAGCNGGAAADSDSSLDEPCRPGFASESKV

Compound `COc1ccc(CC(C)NCC(O)c2ccc(O)c(N)c2)cc1` (single isomer, unassigned) [(S,S)-Desformoterol, 3-Amino-4-hydroxy-α-[[[2-(4-methoxyphenyl)-1-methylethyl]amino]methyl]-benzenemethanol] has an IC50 [1] of 64700 nM and an IC50 [2] greater than 10000 nM.
`CC(C)NCC(O)c1ccc(O)c(O)c1` (stereo not drawn) [Isoproterenol] was tested, and the “Intrinsic Activity (cAMP)” value [3] was 1.00.
`CC(C)(C)NC[C@H](O)c1ccc(O)c(CO)c1` [(R)-Albuterol] was tested, and the “Intrinsic Activity (cAMP)” value [3] was 0.44.
In the case of `COc1ccc(CC(C)NCC(O)c2ccc(O)c(N)c2)cc1` (single isomer, unassigned) [(R,R)-Desformoterol, 3-Amino-4-hydroxy-α-[[[2-(4-methoxyphenyl)-1-methylethyl]amino]methyl]-benzenemethanol], the IC50 [1] is reported as 3180 nM, the IC50 [2] is reported as 35.6 nM and the “β2 Selectivity (β1/β2)” value [2] is reported as 89.
For `COc1ccc(C[C@@H](C)NCC(O)c2ccc(O)c(N)c2)cc1` (stereo partly drawn) [(S,R)-Desformoterol, 3-Amino-4-hydroxy-α-[[[2-(4-methoxyphenyl)-1-methylethyl]amino]methyl]-benzenemethanol], the inhibition at 10 µM ([1]; read-out: inhibition of specific binding at β1) was 22% and the IC50 [2] was 1830 nM.
In the case of `COc1ccc(CC(C)NCC(O)c2ccc(O)c(N)c2)cc1` [(R,R/S,S)-Desformoterol, 3-Amino-4-hydroxy-α-[[[2-(4-methoxyphenyl)-1-methylethyl]amino]methyl]-benzenemethanol], the IC50 [1] is reported as 5140 nM, the IC50 [2] is reported as 81.3 nM and the “β2 Selectivity (β1/β2)” value [2] is reported as 63.
`COc1ccc(CC(C)NCC(O)c2ccc(O)c(N)c2)cc1` (single isomer, unassigned) [(R,S)-Desformoterol, 3-Amino-4-hydroxy-α-[[[2-(4-methoxyphenyl)-1-methylethyl]amino]methyl]-benzenemethanol] was tested, and the IC50 [1] was 1790 nM, the IC50 [2] was 3140 nM and the “β2 Selectivity (β1/β2)” value [2] was 0.6.
